Reference: patent US20140363830A1, “COMPOUNDS THAT MODULATE HSP90 ACTIVITY AND METHODS FOR IDENTIFYING SAME” (SYNTA PHARMACEUTICALS CORP., priority 2006, published 2014)

Columns and labels:
[1] = system: RERF-LC-AI^IVP human lung tumor cells; test: RERF-LC-AI^IVP nude mouse xenograft model; assay type: in vivo
Method: The human squamous non-small cell lung cancer cell line, RERF-LC-AI (RCB0444; S. Kyoizumi, et al., Cancer. Res. 45:3274-3281, 1985), was obtained from the Riken Cell Bank (Tsukuba, Ibaraki, Japan). […] FBS was obtained from American Type Culture Collection (Manassas, Va., USA) and all other reagents were obtained from Invitrogen Corp. (Carlsbad, Calif., USA). Approximately 4-5×10(6) cells that had been cryopreserved in liquid nitrogen were rapidly thawed at 37° C. and transferred to a 175 cm^2 tissue culture flask containing 50 ml of growth media and then incubated at 37° C. in a 5% CO2 incubator.
(§1) The growth media was replaced every 2-3 days until the flask became 90% confluent, typically in 5-7 days. To passage and expand the cell line, a 90% confluent flask was washed with 10 ml of room temperature phosphate buffered saline (PBS) and the cells were disassociated by adding 5 ml 1× trypsin-EDTA (Invitrogen) and incubating at 37° C. until the cells detached from the surface of the flask. To inactivate the trypsin, 5 ml of growth media was added and then the contents of the flask were centrifuged to pellet the cells. The supernatant was aspirated and the cell pellet was resuspended in 10 ml of growth media and the cell number determined using a hemocytometer. Approximately 1−3×10(6) cells per flask were seeded into 175 cm^2 flasks containing 50 ml of growth media and incubated at 37° C. in a 5% CO2 incubator. When the flasks reached 90% confluence, the above passaging process was repeated until sufficient cells had been obtained for implantation into mice.
Seven to eight week old, female Crl:CD-1-nuBR (nude) mice were obtained from Charles River Laboratories (Wilmington, Mass., USA) Animals were housed 4-5/cage in micro-isolators, with a 12 hr/12 hr light/dark cycle, acclimated for at least 1 week prior to use and fed normal laboratory chow ad libitum. Studies were conducted on animals between 8 and 12 weeks of age at implantation. […] Using a 27 gauge needle and 1 cc syringe, 0.1 ml of the cell suspension was injected subcutaneously into the flank of each nude mouse. Tumor volumes (V) were calculated by caliper measurement of the width (W), length (L) and thickness (T) of tumors using the following formula: V=0.5236×(L×W×T).
In vivo passaged RERF-LC-AI tumor cells (RERF-LC-AI^IVP) were isolated to improve the rate of tumor implantation relative to the parental cell line in nude mice. RERF-LC-AI tumors were permitted to develop in vivo until they reached approximately 250 mm^3 in volume, which required approximately 3 weeks following implantation. Mice were euthanized via CO2 asphyxiation and their exteriors sterilized with 70% ethanol in a laminar flow hood. Using sterile technique, tumors were excised and diced in 50 ml PBS using a scalpel blade. A single cell suspension was prepared using a 55 ml Wheaton Safe-Grind tissue grinder (catalog #62400-358; VWR International, West Chester, Pa., USA) by plunging the pestle up and down 4-5 times without twisting. The suspension was strained through a […] nylon cell strainer and then centrifuged to pellet the cells. The resulting pellet was resuspended in 0.1 M NH4Cl to lyse contaminating red blood cells and then immediately centrifuged to pellet the cells. The cell pellet was resuspended in growth media and seeded into 175 cm^2 flasks containing 50 ml of growth media at 1-3 tumors/flask or approximately 10×10(6) cells/flask. […]

c-kit [2] = test: FACS-based c-kit degradation assay in Kasumi-1 cells; assay type: cell-based; conditions: about 18 h
Method: (§2) Two leukemia cell lines, HEL92.1.7 and Kasumi-1, were used for testing c-kit degradation induced by Hsp90 inhibitors of the invention. […] The cells were collected and centrifuged (SORVALL RT 6000D) at 1200 rpm for 5 min. The supernatants were discarded, and the cells were washed one time with 1×PBS. After centrifugation the cells were stained with FITC conjugated c-kit antibody (MBL International, Cat #K0105-4) in 100 ml 1×PBS at 4° C. for 1 h. The samples were read and analysized with FACSCalibur flow cytometer (Becton Dicknson).

c-kit [3] = test: FACS-based c-kit degradation assay in HEL92.1.7 cells; assay type: cell-based; conditions: about 18 h
Method: as §2

c-kit [4] = test: Western blot analysis of c-Kit in Kasumi-1 cells; assay type: cell-based
From the text: The results of the FACS analysis were confirmed with Western blot analysis (see FIG. 5). […] In contrast, 17-AAG had no effect of c-Kit protein levels.

Her2 = test: Degradation of Her2 in BT-474 cells (Western blot); assay type: cell-based, Human; conditions: for Her2 degradation: overnight
Method: Human high-Her2 breast carcinoma BT474 (HTB-20), SK-BR-3 (HTB-30) and MCF-7 breast carcinoma (HTB-22) from American Type Culture Collection, VA, USA were grown in Dulbecco's modified Eagle's medium with 4 mM L-glutamine and antibiotics (100 IU/ml penicillin and 100 ug/ml streptomycine; GibcoBRL). To obtain exponential cell growth, cells were trypsinized, counted and seeded at a cell density of 0.5×10^6 cells/ml regularly, every 3 days. All experiments were performed on day 1 after cell passage.
After treatment, each cytoplasmic sample was prepared from 1×10^6 cells by incubation of cell lysis buffer (#9803, cell Signaling Technology) on ice for 10 minutes. The resulting supernatant used as the cytosol fractions were dissolved with sample buffer for SDS-PAGE and run on a SDS-PAGE gel, blotted onto a nitrocellulose membrane by using semi-dry transfer. Non-specific binding to nitrocellulose was blocked with 5% skim milk in TBS with 0.5% Tween at room temperature for 1 hour, then probed with anti-Her2/ErB2 mAb (rabbit IgG, #2242, Cell Signaling) and anti-Tubulin (T9026, Sigma) as housekeeping control protein. HRP-conjugated goat antirabbit IgG (H+L) and HRP-conjugated horse antimouse IgG (H+L) were used as secondary Ab (#7074, #7076, Cell Signaling) and LumiGLO reagent, 20× Peroxide (#7003, Cell Signaling) was used for visualization.

[5] = system: human tumor cell line MDA-MB-435S; test: MDA-MB-435S nude mouse xenograft model; assay type: in vivo; conditions: 300 mg/kg body weight IP, 5 days per week for 3 weeks
Method: as §1, with “FBS was obtained from Sigma-Aldrich Corp. (St. Louis, Mo., USA), and all other reagents were obtained from Invitrogen Corp. (Carlsbad, Calif., USA). Approximately 4-5×10(6) cells that had been cryopreserved in liquid nitrogen were rapidly thawed at 37° C. and transferred to a 175 cm^2 tissue culture flask containing 50 ml of growth media and then incubated at 37° C. in a 5% CO2 incubator. The growth” for “The growth”, “ml 1× Trypsin-EDTA (Invitrogen) and” for “ml 1× trypsin-EDTA (Invitrogen) and”, “hemocytometer. Approximately 1-3×10(6) cells per” for “hemocytometer. Approximately 1−3×10(6) cells per”
Six to eight week old, female Crl:CD-1-nuBR (nude) mice were obtained from Charles River Laboratories (Wilmington, Mass., USA) Animals were housed 4-5/cage in micro-isolators, with a 12 hr/12 hr light/dark cycle, acclimated for at least 1 week prior to use and fed normal laboratory chow ad libitum. Studies were conducted on animals between 7 and 12 weeks of age at implantation. […] Tumor volumes (V) were calculated by caliper measurement of the width (W), length (L) and thickness (T) of tumors using the following formula: V=[…]×(L×W×T) Animals were randomized into treatment groups so that the average tumor volumes of each group were similar at the start of dosing. […]

Hsp90 protein = test: Malachite Green assay of ATPase activity of Hsp90 protein; assay type: biochemical; conditions: 37° C., 4 hours
Method: Hsp90 protein was obtained from Stressgen (Cat#SPP-770). Assay buffer: 100 mM Tris-HCl, Ph7.4, 20 mM KCl, 6 mM MgCl2. […] Malachite green reagent was added to the reaction. […] The plate was read by an ELISA reader with an absorbance at 620 nm.

[6] = 200 mg/kg body weight i.p., 5 days per week, 15 doses

Structure (SMILES)	c-kit degradation (c-kit [2]; 0.5 μM)	c-kit degradation (c-kit [3]; 0.5 μM)	Her2 degradation (Her2; 0.5 μM)	Her2 degradation (Her2; 2 μM)	Her2 degradation (Her2; 5 μM)	c-kit degradation (c-kit [2]; 0.05 μM)	c-kit degradation (c-kit [3]; 0.05 μM)	also measured
C=CCNC1=C2C[C@@H](C)C[C@H](OC)[C@H](O)[C@@H](C)/C=C(\C)[C@H](OC(N)=O)[C@@H](OC)/C=C\C=C(/C)C(=O)NC(=CC1=O)C2=O [Compound 17-AAG, 17-allylamino-17-demethoxygeldanamycin, reference compound]	could not induce c-kit degradation	could not induce c-kit degradation						growth rate of RERF-LC-AI^IVP human lung tumor cells in nude mice ([1]; 75 mg/kg body weight i.p., 5 days per week, 15 doses): decreased the growth rate; maximum tolerated dose in nude mice ([1]; i.p., 5 times per week): ~75 mg/kg body weight; c-Kit protein levels (Western blot) (c-kit [4]; concentration not given): had no effect
CCc1cc(-c2nnc(S)n2-c2cccc3ccccc23)c(O)cc1O [Compound 49, 3-(2,4-Dihydroxy-5-ethyl-phenyl)-4-(naphthalen-1-yl)-5-mercapto-[1,2,4]triazole]			partial degradated	complete degradation	complete degradation			Activity in Her2 degradation relative to Compound 108 (Her2): even more active than Compound 108; effect on body weights [5]: lack of an effect on body weights; toxicity [5]: not associated with significant toxicity; growth rate of MDA-MB-435S cells in nude mice ([5]; compared with 100 mg/kg 17-AAG): decreased the growth rate of MDA-MB-435S cells in nude mice to a greater extent than did a dose of 100 mg/kg body weight of the Hsp90 inhibitor 17-AAG
Oc1ccc(-c2nnc(S)n2-c2cccc3ccccc23)c(O)c1 [Compound 108, 3-(2,4-Dihydroxy-phenyl)-4-(naphthalen-1-yl)-5-mercapto-[1,2,4]triazole]			partially degradated	partially degradated	almost completely degraded			ATPase activity of Hsp90 (Hsp90 protein; 4 μM): significant inhibition; ATPase activity of Hsp90 (Hsp90 protein; 40 μM): even greater inhibition of ATPase activity of Hsp90 than geldanamycin
CCc1cc(-c2nnc(S)n2-c2ccc(OC)c3c2ccn3C(C)C)c(O)cc1O [Compound 188, 3-(2,4-Dihydroxy-5-ethyl-phenyl)-4-(1-isopropyl-7-methoxy-indol-4-yl)-5-mercapto-[1,2,4]triazole]	induced c-kit degradation	induced c-kit degradation				induced c-kit degradation	induced c-kit degradation	effect on body weights [1, 6]: minimal effect on body weights; growth rate of RERF-LC-AI^IVP human lung tumor cells in nude mice [1, 6]: decreased the growth rate; maximum tolerated dose in nude mice ([1]; mouse, in vivo, ip): ~200 mg/kg body weight
CC(C)c1cc(-c2nnc(S)n2-c2ccc3c(ccn3C)c2)c(O)cc1O [Compound 221, 3-(2,4-dihydroxy-5-isopropyl-phenyl)-4-(N-methyl-indol-5-yl)-5-mercapto-[1,2,4]triazole]	induced c-kit degradation	induced c-kit degradation				induced c-kit degradation	induced c-kit degradation	degradation of c-Kit (Western blot) (c-kit [4]; 100 nM): induced the degradation of c-Kit; degradation of c-Kit (Western blot) (c-kit [4]; 400 nM): induced the degradation of c-Kit
